# Source: patent US5403824A, “Methods for the treatment of osteoporosis” (The Procter & Gamble Company, priority 1993, dated 1995)
# Legend:
# [1] = system: enkephalinase; assay: enkephalinase inhibition, cleavage of N-suc-Ala-Ala-Phe-AMC by osteoblast-like cells, fluorescence; format: biochemical, rat or mouse; conditions: substrate N-succinyl-alanyl-alanylphenylalanyl-7-amido-4-methyl coumarin, 37° C., one hr
# Source text: One such model is described by Spillantini et al., 12 Eur. J. Pharmacol 142-150 (1986), which has been modified by Applicants. (Applicants' modification consists of using osteoblast-like cells, rather than human serum, as the source of enkephalin-degrading enzymes.) This model measures inhibition of the enkephalin-degrading enzyme "enkephalinase". According to Applicants' modified method, the source of the enkephalin-degrading enzymes i s rat osteoblast-like cells or mouse osteoblast-like cells (MC3T3-E1 cells). The substrate used is N-succinyl-alanyl-alanyl-phenylalanyl-7-amido-4-methyl coumarin (hereafter N-suc-Ala-Ala-Phe-AMC), which is known to be cleaved at the Ala-Phe peptide bond by enkephalinase. […] Aminopeptidase, which is known to specifically cleave only Phe-AMC (at the Phe-AM(peptide bond), is then added to the sample. Cleavage by aminopeptidase yields the metabolites AMC (fluorescent) and Phe. Fluorescence is then measured and is directly proportional to the amount of substrate degraded by enkephalinase.
# Specifically, a test sample (containing enzyme and a putative enkephalinase inhibitor) and a control sample (containing only enzyme) are equilibrated. A quantified amount of substrate is then added to both samples. […] Fluorescence of the samples is then measured, greater fluorescence corresponding to greater degradation of the substrate by enkephalinase. […]
# [2] = system: human subject with postmenopausal osteoporosis or low bone mass; assay: treatment of human subject with osteoporosis, vertebral density by dual-energy photon absorptiometry; format: in vivo
# Description: A human subject weighing about 60 kg (132 lbs), suffering from postmenopausal osteoporosis, is treated by a method of this invention. Specifically, for two years, the enkephalin-degrading enzyme inhibitor DL-3-mercapto-2-benzylpropanoylglycine is administered orally, in a cyclical regimen, where each cycle consists of an active period of 28 days during which a tablet containing 160 mg of said inhibitor is administered each day, followed by a non-active period of 28 days during which the subject receives a daily supplement of calcium (1,000 mg/day), with repeat of cycle.
# A human subject weighing about 60 kg (132 lbs), suffering from postmenopausal osteoporosis, is treated by a method of this invention. Specifically, for two years, the compound H-Tyr-D-Ala-Gly-Phe-D-Leu-OH ("DADLE") is administered to the subject, in a cyclical regimen, where each cycle consists of an active period of 28 days during which a solution containing 30 mg of DADLE is administered intravenously every day, followed by a non-active period of 28 days during which the patient receives a daily supplement of calcium (1,000 mg/day), with repeat of cycle.
# (§1) A human subject weighing about 60 kg (132 lbs), suffering from postmenopausal osteoporosis, is treated by a method of this invention. Specifically, for two years, an enkephalin of the formula Tyr-D-Cys(S-t-butylthioether)-Gly-Phe-Leu-Thr(O-t-butylether) ("BUBUC") is administered to the subject, in a cyclical regimen, where each cycle consists of an active period of 28 days during which a solution containing 30 mg of BUBUC is intravenously administered each day, followed by a non-active period of 28 days during which the patient receives a daily supplement of calcium (1,000 mg/day), with repeat of cycle.
# as §1, with “years, the” for “years, an”, “enkephalin secretagogue Tyr-Arg^1,” for “enkephalin of the formula Tyr-D-Cys(S-t-butylthioether)-Gly-Phe-Leu-Thr(O-t-butylether) ("BUBUC")”, “of Tyr-Arg” for “of BUBUC”, “the subject” for “the patient”, “cycle. […]” for “cycle.”
# A human subject weighing about 60 kg (132 lbs), suffering from postmenopausal osteoporosis, is treated by a method of this invention. Specifically, each day for five years, the subject is administered 3 tablets, comprised as follows.
# A human subject weighing about 60 kg (132 lbs) is evaluated approximately four years after spontaneous menopause, and is found to have low bone mass. The subject is then treated by a method of this invention to treat osteoporosis. Specifically, once each month for five years, the subject is administered, via intravenous injection, 5 ml of a solution comprised as follows.
compound,measurement,setting,value
O=C(O)CNC(=O)C(CS)Cc1ccccc1 (racemic) [DL-3-mercapto-2-benzyl-propanoylglycine],inhibition of substrate degradation by enkephalinase (fluorescence vs control),[1],significantly inhibited substrate degradation by enkephalinase
same,density of vertebrae / bone mass,[2]; Example 7: 3 tablets of 50.0 mg each day for five years,no significant loss in bone mass has occurred
same,density of vertebrae / bone mass,"[2]; oral tablet 160 mg daily, 28 days active / 28 days calcium, two years",an increase in bone mass
